Measurements: patent US12162820B2 (TAIWANJ PHARMACEUTICALS CO., LTD., priority 2019, dated 2024)

Experiments:
Assay type in all cases: biochemical
[1] = molecular target: T1, HDAC3 (Homo sapiens, UniProt O15379); experiment: HDAC Inhibition Screening Assay (FLUOR DE LYS Fluorimetric Drug Discovery Kit), HDAC3; conditions: for inhibition at 2 µM: 2 μM compound; for inhibition at 10 µM: 10 μM compound; for inhibition at 50 µM: 50 μM compound
T1 construct: purchased Enzo Life Sciences
How it was run: (§1)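 Compounds at 2 μM, 10 μM and 50 μM were each tested against HDAC1, HDAC2 and HDAC3 using a two-step fluorimetric assay. Results are given as percent of basal control after baseline subtraction.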

[2] = molecular target: T2, HDAC1 (Homo sapiens, UniProt Q13547); experiment: HDAC Inhibition Screening Assay (FLUOR DE LYS Fluorimetric Drug Discovery Kit), HDAC1; conditions: for inhibition at 2 µM: 2 μM compound; for inhibition at 10 µM: 10 μM compound; for inhibition at 50 µM: 50 μM compound
T2 construct: purchased Enzo Life Sciences
T2 sequence (Q13547 whole entry): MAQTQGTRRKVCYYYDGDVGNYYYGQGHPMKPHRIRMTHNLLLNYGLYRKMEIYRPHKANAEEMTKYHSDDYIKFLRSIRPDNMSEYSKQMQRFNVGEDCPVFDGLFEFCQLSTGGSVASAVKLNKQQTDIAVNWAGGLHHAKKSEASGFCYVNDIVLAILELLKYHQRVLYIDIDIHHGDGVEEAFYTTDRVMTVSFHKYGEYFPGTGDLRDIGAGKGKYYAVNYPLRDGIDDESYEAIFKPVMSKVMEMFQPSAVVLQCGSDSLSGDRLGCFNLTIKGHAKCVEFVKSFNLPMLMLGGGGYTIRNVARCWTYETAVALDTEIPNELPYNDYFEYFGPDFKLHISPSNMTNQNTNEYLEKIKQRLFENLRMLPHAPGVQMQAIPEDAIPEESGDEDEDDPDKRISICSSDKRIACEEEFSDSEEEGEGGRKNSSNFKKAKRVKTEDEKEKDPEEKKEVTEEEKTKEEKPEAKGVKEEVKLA
How it was run: as §1

[3] = molecular target: T3, HDAC2 (Homo sapiens, UniProt Q92769); experiment: HDAC Inhibition Screening Assay (FLUOR DE LYS Fluorimetric Drug Discovery Kit), HDAC2; conditions: for inhibition at 2 µM: 2 μM compound; for inhibition at 10 µM: 10 μM compound; for inhibition at 50 µM: 50 μM compound
T3 construct: purchased Enzo Life Sciences
T3 sequence (Q92769 whole entry): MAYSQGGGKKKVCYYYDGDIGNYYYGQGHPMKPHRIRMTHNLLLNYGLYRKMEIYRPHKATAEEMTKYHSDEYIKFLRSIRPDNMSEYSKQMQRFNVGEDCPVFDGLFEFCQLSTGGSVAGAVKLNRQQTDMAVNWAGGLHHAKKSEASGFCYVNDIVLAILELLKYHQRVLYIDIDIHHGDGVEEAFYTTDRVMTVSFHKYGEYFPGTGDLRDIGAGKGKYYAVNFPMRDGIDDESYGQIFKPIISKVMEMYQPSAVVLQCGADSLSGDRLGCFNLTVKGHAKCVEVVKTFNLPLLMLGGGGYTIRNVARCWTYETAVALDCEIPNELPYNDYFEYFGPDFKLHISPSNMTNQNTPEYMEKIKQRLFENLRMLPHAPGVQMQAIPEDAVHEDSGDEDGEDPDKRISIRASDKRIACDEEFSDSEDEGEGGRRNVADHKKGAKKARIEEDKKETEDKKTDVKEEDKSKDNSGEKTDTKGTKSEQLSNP
How it was run: as §1

[4] = molecular target: T4, ATX (autotaxin) (Homo sapiens, UniProt Q13822); experiment: Autotaxin Inhibition Screening Assay (choline release from LPC, LPC-CR); conditions: for inhibition at 4 µM: 4 μM compound; for inhibition at 20 µM: 20 μM compound; for inhibition at 50 µM: 50 μM compound
T4 construct: purchased Cayman 10803
How it was run: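 20 ng ATX incubated with 100 μM 14:0 LPC in 50 mM Tris pH 8.0, 0.01% Triton X-100, 50 mM CaCl2, with choline oxidase/HRP/2 mM HVA coupling; compounds at 4, 20 and 50 μM. HVA fluorescence (ex/em 320/450 nm) read every 60 s for 90 min; inhibition % from slopes corrected for blank versus vehicle.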

T1 sequence (O15379 whole entry): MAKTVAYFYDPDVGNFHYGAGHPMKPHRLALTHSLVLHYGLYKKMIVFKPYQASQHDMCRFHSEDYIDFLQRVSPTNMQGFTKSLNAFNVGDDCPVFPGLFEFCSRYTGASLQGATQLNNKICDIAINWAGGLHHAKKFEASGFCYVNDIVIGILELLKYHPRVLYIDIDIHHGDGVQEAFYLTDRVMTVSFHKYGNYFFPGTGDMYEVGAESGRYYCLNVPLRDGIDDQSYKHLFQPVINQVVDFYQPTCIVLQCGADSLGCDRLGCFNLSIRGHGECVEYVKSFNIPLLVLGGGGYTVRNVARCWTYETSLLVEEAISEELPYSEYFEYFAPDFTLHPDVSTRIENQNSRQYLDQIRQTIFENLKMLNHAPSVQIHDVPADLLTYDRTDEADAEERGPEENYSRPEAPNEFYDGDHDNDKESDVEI
T1 sequence (O75376 395-489 partner limits assumed): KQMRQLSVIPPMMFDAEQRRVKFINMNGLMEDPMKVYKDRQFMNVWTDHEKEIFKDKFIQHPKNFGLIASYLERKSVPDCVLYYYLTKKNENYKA

Work on `Nc1cc(F)ccc1NC(=O)CCCCCCC(=O)NC1CCc2cc(/C=C/C(=O)Nc3cc(Cl)cc(Cl)c3)ccc21` (stereo not drawn) [Compound 41] yielded an inhibition at 2 µM [1] of under 50%, an inhibition at 10 µM [1] of under 50% and an inhibition at 50 µM [1] of under 50%. For the same compound, the inhibition at 2 µM [2] was under 50%, the inhibition at 10 µM [2] was under 50% and the inhibition at 50 µM [2] was under 50%. The inhibition at 2 µM [3] was under 50%, the inhibition at 10 µM [3] was under 50% and the inhibition at 50 µM [3] was under 50%. The inhibition at 4 µM [4] was under 50%, the inhibition at 20 µM [4] was under 50% and the inhibition at 50 µM [4] was under 50%.
`O=C(/C=C/c1ccc2c(c1)CCC2NC(=O)CCCCCCC(=O)NO)Nc1cc(Cl)cc(Cl)c1` (stereo not drawn) [Compound 42, (E)-N^1-(5-(3-((3,5-dichlorophenyl)amino)-3-oxoprop-1-en-1-yl)-2,3-dihydro-1H-inden-1-yl)-N^8-hydroxyoctanediamide] gave an inhibition at 2 µM [1] of 50 to 80%, an inhibition at 10 µM [1] of over 80% and an inhibition at 50 µM [1] of 50 to 80%. It also gave an inhibition at 2 µM [2] of under 50%, an inhibition at 10 µM [2] of 50 to 80% and an inhibition at 50 µM [2] of over 80%. It also gave an inhibition at 2 µM [3] of 50 to 80%, an inhibition at 10 µM [3] of 50 to 80% and an inhibition at 50 µM [3] of over 80%. It also gave an inhibition at 4 µM [4] of under 50%, an inhibition at 20 µM [4] of under 50% and an inhibition at 50 µM [4] of over 80%.
`COc1ccc2c(c1)CCC2NC(=O)CCCCCCC(=O)Nc1ccc(F)cc1N` (stereo not drawn) [Compound 43, N1-(2-amino-4-fluorophenyl)-N8-(5-methoxy-2,3-dihydro-1H-inden-1-yl)octanediamide] showed an inhibition at 2 µM [1] of under 50%, an inhibition at 10 µM [1] of 50 to 80% and an inhibition at 50 µM [1] of 50 to 80%. For the same compound, the inhibition at 2 µM [2] was under 50%, the inhibition at 10 µM [2] was under 50% and the inhibition at 50 µM [2] was under 50%. For the same compound, the inhibition at 2 µM [3] was under 50%, the inhibition at 10 µM [3] was under 50% and the inhibition at 50 µM [3] was 50 to 80%. For the same compound, the inhibition at 4 µM [4] was under 50%, the inhibition at 20 µM [4] was under 50% and the inhibition at 50 µM [4] was under 50%.
For `COc1ccc2c(c1)CCC2NC(=O)CCCCCCC(=O)NO` (stereo not drawn) [Compound 44], the inhibition at 2 µM [1] was 50 to 80%, the inhibition at 10 µM [1] was over 80% and the inhibition at 50 µM [1] was over 80%. For the same compound, the inhibition at 2 µM [2] was 50 to 80%, the inhibition at 10 µM [2] was over 80% and the inhibition at 50 µM [2] was over 80%. For the same compound, the inhibition at 2 µM [3] was 50 to 80%, the inhibition at 10 µM [3] was over 80% and the inhibition at 50 µM [3] was over 80%. For the same compound, the inhibition at 4 µM [4] was under 50%, the inhibition at 20 µM [4] was under 50% and the inhibition at 50 µM [4] was under 50%.
`O=C(CCCCCN(CC(=O)NC1CCc2ccccc21)CC(=O)NC1CCc2ccccc21)NO` (stereo not drawn) [Compound 45, 2,2′-((6-(hydroxyamino)-6-oxohexyl)azanediyl)bis(N-(2,3-dihydro-1H-inden-1-yl)acetamide)] showed an inhibition at 2 µM [1] of over 80%, an inhibition at 10 µM [1] of over 80% and an inhibition at 50 µM [1] of over 80%. The inhibition at 2 µM [2] was over 80%, the inhibition at 10 µM [2] was over 80% and the inhibition at 50 µM [2] was over 80%. The inhibition at 2 µM [3] was over 80%, the inhibition at 10 µM [3] was over 80% and the inhibition at 50 µM [3] was over 80%. It also gave an inhibition at 4 µM [4] of under 50%, an inhibition at 20 µM [4] of under 50% and an inhibition at 50 µM [4] of under 50%.
`O=C(CCCCCCC(=O)NC1CCCc2cc(Br)ccc21)NO` (stereo not drawn) [Compound 46, N1-(6-bromo-1,2,3,4-tetrahydronaphthalen-1-yl)-N8-hydroxyoctanediamide] was tested, and the inhibition at 2 µM [1] was under 50%, the inhibition at 10 µM [1] was under 50% and the inhibition at 50 µM [1] was 50 to 80%. The inhibition at 2 µM [2] was under 50%, the inhibition at 10 µM [2] was 50 to 80% and the inhibition at 50 µM [2] was 50 to 80%. The inhibition at 2 µM [3] was under 50%, the inhibition at 10 µM [3] was 50 to 80% and the inhibition at 50 µM [3] was over 80%. The inhibition at 4 µM [4] was under 50%, the inhibition at 20 µM [4] was under 50% and the inhibition at 50 µM [4] was under 50%.
`COc1ccc2c(c1)CCCC2NC(=O)CCCCCCC(=O)Nc1ccc(F)cc1N` (stereo not drawn) [Compound 47, N1-(2-amino-4-fluorophenyl)-N8-(6-methoxy-1,2,3,4-tetrahydronaphthalen-1-yl)octanediamide] was tested, and the inhibition at 2 µM [1] was 50 to 80%, the inhibition at 10 µM [1] was 50 to 80% and the inhibition at 50 µM [1] was over 80%. It also gave an inhibition at 2 µM [2] of under 50%, an inhibition at 10 µM [2] of under 50% and an inhibition at 50 µM [2] of under 50%. The inhibition at 2 µM [3] was under 50%, the inhibition at 10 µM [3] was 50 to 80% and the inhibition at 50 µM [3] was 50 to 80%. The inhibition at 4 µM [4] was under 50%, the inhibition at 20 µM [4] was under 50% and the inhibition at 50 µM [4] was under 50%.
For `COc1ccc2c(c1)CCCC2NC(=O)CCCCCCC(=O)NO` (stereo not drawn) [Compound 48, N^1-hydroxy-N^8-(6-methoxy-1,2,3,4-tetrahydronaphthalen-1-yl)octanediamide], the inhibition at 2 µM [1] was over 80%, the inhibition at 10 µM [1] was over 80% and the inhibition at 50 µM [1] was over 80%. For the same compound, the inhibition at 2 µM [2] was over 80%, the inhibition at 10 µM [2] was over 80% and the inhibition at 50 µM [2] was over 80%. It also gave an inhibition at 2 µM [3] of over 80%, an inhibition at 10 µM [3] of over 80% and an inhibition at 50 µM [3] of over 80%. The inhibition at 4 µM [4] was under 50%, the inhibition at 20 µM [4] was under 50% and the inhibition at 50 µM [4] was under 50%.
